Data set [1] in a line: Eletriptan transport across Caco-2 cell monolayers, effect of concentration. It counts as in vitro ADME, human. To be noted: human, 2 hours, 37° C. The procedure: (§1) Caco-2 cell monolayers were grown on permeable 24 well filter supports (1 μm poresize) and used at Day 15-28.
(§2) In studies examining the effect of concentration, 1, 10, 25 and 100 μM solutions of eletriptan in HBSS were added to the donor chamber and Hank's balanced salt solution (HBSS) was added to the acceptor chamber. The volume of the apical and basolateral chambers were 0.25 ml and 1 ml respectively.
(Caco-2 cells form a polarised layer with tight junctions and transporters.)

In data set [2] the test system is Human Intestinal (Caco-2) Cell Monolayers. The data set is described as above. It counts as in vitro ADME. The note with it: Caco-2, higher secretory than absorptive flux at low concentrations. As to the method: as §1, §2
Data set [3] is described as follows: Effect of Vitamin E-TPGS on the pharmacokinetics of eletriptan in beagle dogs. It counts as in vivo. To be noted: male, dog, plasma, oral, fasted, 0.2 or 1.0 mg/kg eletriptan with or without 6.67 mg/kg Vitamin E-TGPS. As to the method: This was a crossover study to assess the effects of Vitamin E-TGPS on the rate of absorption of eletriptan. Four male beagle dogs were orally dosed in the fasted state with a 20 ml aqueous formulation comprising
(a) 0.2 mg/kg eletriptan;
(b) 0.2 mg/kg eletriptan coformulated with 6.67 mg/kg of Vitamin E-TGPS;
(c) 1.0 mg/kg eletriptan; and
(d) 1.0 mg/kg eletriptan coformulated with 6.67 mg/kg of Vitamin E-TGPS.
Blood samples (2.5 ml) were collected at 0, 0.17, 0.33, 0.5, 1, 2, 4, 6, 8, 12 and 24 hours after dosing and centrifuged. The resulting plasma samples were deep frozen until analysed for eletriptan by hplc with electrochemical detection.

For another data set, the target named is p-gp (Homo sapiens, UniProt P08183). As to the kind of experiment: in vitro. The note with it: Caco-2.
Sequence of p-gp (P08183 whole entry): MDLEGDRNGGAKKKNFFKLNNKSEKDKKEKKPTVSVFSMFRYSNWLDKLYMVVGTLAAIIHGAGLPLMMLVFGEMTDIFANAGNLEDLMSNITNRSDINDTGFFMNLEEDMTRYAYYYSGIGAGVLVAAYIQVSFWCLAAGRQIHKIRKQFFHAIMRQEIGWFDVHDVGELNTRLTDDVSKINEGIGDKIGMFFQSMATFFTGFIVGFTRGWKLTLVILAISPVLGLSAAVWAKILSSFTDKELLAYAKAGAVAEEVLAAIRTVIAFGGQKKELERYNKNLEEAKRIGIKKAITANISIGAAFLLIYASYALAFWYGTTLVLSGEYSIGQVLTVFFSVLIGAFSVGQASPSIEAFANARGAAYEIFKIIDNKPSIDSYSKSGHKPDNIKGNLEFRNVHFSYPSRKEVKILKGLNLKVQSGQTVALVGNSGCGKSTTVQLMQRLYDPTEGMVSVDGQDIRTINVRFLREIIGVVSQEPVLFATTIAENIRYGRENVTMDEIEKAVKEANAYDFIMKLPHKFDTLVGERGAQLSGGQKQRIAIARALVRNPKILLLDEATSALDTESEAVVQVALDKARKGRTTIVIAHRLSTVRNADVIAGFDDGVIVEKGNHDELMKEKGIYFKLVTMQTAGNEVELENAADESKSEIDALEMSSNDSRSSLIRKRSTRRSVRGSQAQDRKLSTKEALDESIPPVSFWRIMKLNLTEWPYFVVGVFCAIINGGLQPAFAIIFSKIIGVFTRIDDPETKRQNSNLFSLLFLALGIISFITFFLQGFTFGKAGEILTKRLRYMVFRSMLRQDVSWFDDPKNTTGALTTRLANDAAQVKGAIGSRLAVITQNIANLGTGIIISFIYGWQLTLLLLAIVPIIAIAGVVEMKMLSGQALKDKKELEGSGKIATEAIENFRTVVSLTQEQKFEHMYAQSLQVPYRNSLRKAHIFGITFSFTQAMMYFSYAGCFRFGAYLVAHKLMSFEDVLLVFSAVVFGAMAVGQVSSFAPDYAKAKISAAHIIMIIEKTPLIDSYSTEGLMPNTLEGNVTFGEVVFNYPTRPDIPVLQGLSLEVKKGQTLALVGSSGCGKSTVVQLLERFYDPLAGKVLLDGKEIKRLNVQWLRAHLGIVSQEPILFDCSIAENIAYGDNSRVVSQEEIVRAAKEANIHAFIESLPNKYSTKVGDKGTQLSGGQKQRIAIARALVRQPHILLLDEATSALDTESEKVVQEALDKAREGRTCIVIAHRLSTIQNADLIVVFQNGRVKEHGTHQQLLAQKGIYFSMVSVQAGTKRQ
For data set [4] the following is noted: in vivo.

As to `CN1CCC[C@@H]1Cc1c[nH]c2ccc(CCS(=O)(=O)c3ccccc3)cc12` [eletriptan], the Papp A→B (commonly how fast a substance crosses the layer from the apical side) at 2 h, 1 μM in data set [1] (Caco-2, 1 μM eletriptan, read-out: Absorptive A -> B Papp) turned out to be 17 ×10⁻⁶ cm/s. Moreover, in data set [1] (Caco-2, 1 μM eletriptan, read-out: Secretory B -> A Papp), the Papp B→A – broadly, how fast a substance crosses the layer from the basolateral side – at 2 h, 1 μM is 41.8 ×10⁻⁶ cm/s. The Papp A→B at 2 h, 10 μM in data set [1] (Caco-2, 10 μM eletriptan, read-out: Absorptive A -> B Papp) turned out to be 20.2 ×10⁻⁶ cm/s. For the same compound, the Papp B→A at 2 h, 10 μM in data set [1] (Caco-2, 10 μM eletriptan, read-out: Secretory B -> A Papp) was 36.1 ×10⁻⁶ cm/s. The apical-to-basolateral permeability (Papp A→B) at 2 h, 25 μM in data set [1] (Caco-2, 25 μM eletriptan, read-out: Absorptive A -> B Papp) came to 21.1 ×10⁻⁶ cm/s. Besides, in data set [1] (Caco-2, 25 μM eletriptan, read-out: Secretory B -> A Papp), the Papp B→A at 2 h, 25 μM was 34.1 ×10⁻⁶ cm/s. The apparent permeability from apical to basolateral (Papp A→B) at 2 h, 100 μM in data set [1] (Caco-2, 100 μM eletriptan, read-out: Absorptive A -> B Papp) was 29.9 ×10⁻⁶ cm/s. Moreover, in data set [1] (Caco-2, 100 μM eletriptan, read-out: Secretory B -> A Papp), the Papp B→A at 2 h, 100 μM turned out to be 32.8 ×10⁻⁶ cm/s. Besides, the “substrate for the p-gp efflux transporter” value in data set [2] was “substrate”. For the same compound, in data set [3], the Cmax is 7 to 15 ng/mL and the Tmax lay in the range of 1 to 1.7 h. Moreover, on p-gp, the Papp A→B at 2 h, 10 μM came out at 16 ×10⁻⁶ cm/s and the Papp B→A at 2 h, 10 μM came to 32.6 ×10⁻⁶ cm/s.
As for `CC(=O)N1CCN(c2ccc(OCC3COC(Cn4ccnc4)(c4ccc(Cl)cc4Cl)O3)cc2)CC1` (stereo not drawn) [ketoconazole], the “eletriptan kel with the inhibitor” value in data set [4] is “significantly reduced”.
As to `CC[C@H]1OC(=O)[C@H](C)[C@@H](O[C@H]2C[C@@](C)(OC)[C@@H](O)[C@H](C)O2)[C@H](C)[C@@H](O[C@@H]2O[C@H](C)C[C@H](N(C)C)[C@H]2O)[C@](C)(O)C[C@@H](C)C(=O)[C@H](C)[C@@H](O)[C@]1(C)O` [erythromycin], the “eletriptan kel with the inhibitor” value in data set [4] is recorded as “significantly reduced”.
